Read-outs that look alike come from different tables or passages of the source.
Legend:
[1] = cited from earlier work
[2] = pig, pH 7.4

Total rosuvastatin absorbed per minute ([2]; 0.4 mg/1.5 ml) [ng/mL] | Total rosuvastatin absorbed per minute ([2]; 0.8 mg/1.5 ml) [ng/mL] | SMILES | logP [1]
 |  | CNCC(O)c1ccc(O)c(O)c1 (stereo not drawn) [Adrenaline] | −0.5 to −1.2
0.6 | 0.3 | CC(C)c1nc(N(C)S(C)(=O)=O)nc(-c2ccc(F)cc2)c1/C=C/[C@@H](O)C[C@@H](O)CC(=O)O [Rosuvastatin] | 
